Patent US6780842B2, “Ceruloplasmin and an antioxidant composition comprising the same and their uses as neuroprotective agent” (Warner-Lambert Company LLC, priority 1999, dated 2004)

Legend:
[1] = Atanasiu et al., 1998; cited from earlier work
CP ferroxidase activity = CP ferroxidase activity after incubation with H2O2, without or with pyruvate; assay type: biochemical, bovine; settings: FIG. 8; 5 mM pyruvate, CP 4 μM, 5 mM H2O2, 37° C.
Experimental: CP (4 μM) was incubated for different times (ranging from 0 to 12 h) in the presence of 5 mM H2O2, at 37° C., in PBS, without or with the addition of pyruvate (5 mM) as a protecting agent. At the end of incubation, catalase was added at a concentration of 0.1 mg/ml (84 U/ml) and incubation resumed at room temperature for 15 min in order to inactivate H2O2. Ferroxidase activity of CP was then measured by absorbence using a modified version of the method of Erel (1998). This method uses a chromogen to complex Fe^2+ ions that were not transformed to Fe^3+ions in the assay solution. The reaction mix contained 0.45M acetate buffer, pH 5.8, 60 μM Fe(NH4)2(SO4).6H2O, and either CP (sample), 25 mM EDTA (control corresponding to 100% iron oxidation) or PBS (control corresponding to 0% iron oxidation).
FIG. 8. Protection of CP ferroxidase activity by pyruvate in vitro. CP was incubated for various times, at 37° C., in the presence of 5 mM H2O2, without (No protection) or with 5 mM sodium pyruvate. The reaction was stopped by a 5 min incubation with an excess of catalase. Ferroxidase activity was then measured and expressed relatively (%) to that of a control CP sample not exposed to H2O2. The experiment was done three times, in duplicate determinations, and results are expressed as means±S.D.

[2] = In vitro antioxidant capacity: inhibition of DPD oxidation by H2O2; assay type: biochemical; settings: 84 U catalase; 30 min exposure to 5 mM H2O2 (not shown)
Experimental: Oxidation of N,N-diethyl-p-phenylenediamine (DPD) by a prooxidant system was used as a general reporter of the amount of ROS generated by that system (Anonymous, 1985; Chahine et al., 1991). Antioxidant capacity of preparations of TRIAD (or of its components) was defined as the ability to inhibit the oxidation of DPD by prooxidants.
To estimate the antioxidant capacity of TRIAD preparations in the prooxidant conditions used with P19 neurons, DPD was added to a final concentration of 32 mM to 200 μl of each prooxidant system described above (see section 2.4) and incubated for the times tested with the cells. At the end of incubation, the amount of oxidized DPD was determined at 560 nm using a spectrophotometer adapted to microscale measurement.
FIG. 5. In vitro antioxidant capacity of CP and TRIAD, in the conditions of H2O2 prooxidant system used with P19 neurons. In this assay, conditions of incubation were as described in the legend to FIG. 4 except that P19 neurons were replaced by N,N-diethyl-p-phenylenediamine (DPD) which absorbs at 560 nm upon oxidation. The experiment was done four times, in triplicate determinations, and results are expressed as means±S.D.

P19 neurons [3] = test: Viability of P19 neurons exposed to XA/XAO prooxidant system (Alamar Blue); assay type: cell-based; settings: FIG. 3
Experimental: (§1) Culture and neuronal differentiation of P19 embryonal carcinoma cells were done according to the procedures of Jeannotte et al. (1997) with the following modifications for microscale adaptation of cultures to 96-well plates: cell aggregates obtained at day 4 of the treatment of P19 cells with retinoic acid were trypsinized with 0.025% trypsin-1 mM EDTA in PBS and subjected to mechanical passages to obtain individual cells which were seeded in gelatin-precoated microwells at a density of 0.7-1×10^5 cells per well. The newly seeded cells (neurons) were cultured in supplemented Neurobasal medium (Neurobasal® containing 0.5 mM L-glutamine and 0.5% B27 supplement) until exposure to oxidative conditions at day 7. […]
(§2) P19 neurons were exposed to the following prooxidant systems: i) XA/XAO system (which produces •O2^− superoxide radicals and hydrogen peroxide H2O2, according to equation 1, shown below); ii) hydrogen peroxide H2O2; and iii) H2O2/Fe^+2 system (which generates •OH [hydroxyl radicals] via the Fenton reaction, equation 2). […] After they were incubated under oxidative conditions, neurons were analyzed for their residual viability by a fluorimetric assay using the Alamar Blue probe (see section 2.5). […]
(§3) After they were incubated under oxidative conditions, neurons were analyzed for their residual viability by a fluorimetric assay using the Alamar Blue probe. […]

P19 neurons [4] = test: Viability of P19 neurons exposed to H2O2 (Alamar Blue); assay type: cell-based; settings: catalase 84 U; 5 mM hydrogen peroxide during 30 min
Experimental: as §1, §2, §3

albumin
Concentration ensuring good antioxidative activity in vitro [1]: 260 µM

CC(=O)C(=O)[O-].[Na+] [pyruvate, sodium pyruvate]
Protection of CP ferroxidase activity against H2O2 (CP ferroxidase activity): inhibited the loss of ferroxidase activity

catalase
Inhibition of DPD oxidation by H2O2 [2]: completely inhibit DPD oxidation | XAO concentration up to which protection was offered (P19 neurons [3]; 250 μM XA, CP 4 μM, catalase 84 U): up to 50 mU/mL | Protection to neurons (P19 neurons [3]; 84 U catalase, incubated for 40 min with XAO in the presence of 250 μM XA): about 10% | Protection to neurons (P19 neurons [4]): 100%
